Read-outs that look alike come from different tables or passages of the source.
Target: T1, rat NPRA (Rattus norvegicus, UniProt P18910)
T1 construct: Full-Length cDNA Cloning and Generation of Cell Lines Overexpressing Natriuretic Peptide Receptors (NPRs); expressed in transfected cells; host or cells: Jump-in T-Rex HEK293 cells, pJTI R4 CMV-TO MCS pA vector, tetracycline induction
T1 sequence (P18910 29-1057): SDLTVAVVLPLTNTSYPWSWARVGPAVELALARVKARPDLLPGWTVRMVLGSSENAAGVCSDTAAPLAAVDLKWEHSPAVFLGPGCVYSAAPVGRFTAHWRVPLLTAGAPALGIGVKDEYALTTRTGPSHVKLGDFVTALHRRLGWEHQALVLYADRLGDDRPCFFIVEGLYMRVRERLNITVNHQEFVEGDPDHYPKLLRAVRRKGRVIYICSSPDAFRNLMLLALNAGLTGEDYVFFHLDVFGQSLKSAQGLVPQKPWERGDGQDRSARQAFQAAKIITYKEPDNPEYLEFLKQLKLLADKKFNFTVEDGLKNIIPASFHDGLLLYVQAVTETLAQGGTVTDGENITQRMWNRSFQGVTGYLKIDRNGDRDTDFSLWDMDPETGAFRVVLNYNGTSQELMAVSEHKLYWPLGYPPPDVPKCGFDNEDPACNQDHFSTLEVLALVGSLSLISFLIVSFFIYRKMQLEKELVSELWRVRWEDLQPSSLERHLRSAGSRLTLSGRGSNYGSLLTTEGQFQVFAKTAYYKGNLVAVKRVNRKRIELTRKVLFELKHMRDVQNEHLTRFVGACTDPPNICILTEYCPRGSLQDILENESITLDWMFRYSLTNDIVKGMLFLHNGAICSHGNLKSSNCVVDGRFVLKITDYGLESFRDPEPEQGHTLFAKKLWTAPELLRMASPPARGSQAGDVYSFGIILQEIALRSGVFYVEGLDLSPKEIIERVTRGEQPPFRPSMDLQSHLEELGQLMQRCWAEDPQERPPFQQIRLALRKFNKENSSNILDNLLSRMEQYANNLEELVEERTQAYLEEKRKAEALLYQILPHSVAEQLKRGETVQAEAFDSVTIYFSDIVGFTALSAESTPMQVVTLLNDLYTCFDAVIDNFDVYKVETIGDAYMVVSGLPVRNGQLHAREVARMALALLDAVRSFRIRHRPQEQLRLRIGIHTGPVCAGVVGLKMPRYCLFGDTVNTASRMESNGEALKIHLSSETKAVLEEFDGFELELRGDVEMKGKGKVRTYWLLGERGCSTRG
Test: Rat NPRA cGMP activity assay (HTRF) in HEK293 cells overexpressing NPRA
Type: cell-based
Protocol: All sequences were verified by full-length sequencing performed by ACGT DNA Sequencing Services (Wheeling, IL). The target cDNA was cloned into pJTI R4 CMV-TO MCS pA vector and then co-transfected with pJT1R4 Int vector into Jump-in™ T-Rex™ HEK293 cells for mammalian inducible expression using Jump-in™ T-Rex™ HEK293 kit and Lipofectamine LTX and Plus Reagent following manufacturer's protocols, as briefly described below.
Jump-in™ T-Rex™ HEK293 cells were plated in a BioCOAT® poly-D-lysine coated 6-well plate (Becton Dickinson, cat no. 354413) at 1 million cells/well in 2 mL culture medium and incubated for 18 h at 37° C. and 5% CO2 to 50-70% confluence. A cDNA mix was made in a 50 mL tube by adding 1.5 μg target cDNA, 1.5 μg pJT1R4 Int vector, 3 μL Plus Reagent, and 300 μL Opti-MEM I sequentially into the tube. A reagent mix was made in a separate 50 mL tube by adding 7.5 μL Lipofectamine LTX into 300 μL Opti-MEM I. The mixtures were incubated for 5 min at room temperature. The cDNA mix was then transferred into the reagent mix, mixed well, and incubated for additional 30 min at room temperature. A 500 μL of cDNA/Lipofectamine complex was then transferred to the wells of the cell plate in which the culture medium was changed to 2 mL of transfection medium containing DMEM with 4.5 g/L D-glucose supplemented with 10% FBS-HI and 20 mM HEPES. Transfected cells were cultured for 48 h in an incubator at 37° C. and 5% CO2. A subclone or pool from each overexpressing cell line was maintained in culture medium with the addition of 2 mg/mL G418 sulfate for the clone selection based on its built-in resistance to G418 sulfate for at least 3 weeks with medium changed every 2-3 days.
NPRs were overexpressed in T-Rex™ HEK293 cells following the induction with 300 ng/mL tetracycline in culture medium for 48 h. Induced cell lines in an exponential growth phase were treated with 0.05% trypsin-EDTA for a few seconds at room temperature, harvested in cell medium containing FBS to neutralize the trypsin, counted, and cryopreserved at the density of 2 million cells/mL in cell preservation solution containing FBS-HI with 5% DMSO. Cryopreserved cells were stored at −80° C. for a few days prior to transferring to a liquid nitrogen tank. Induced cell lines were then used for suspension assays to measure the activity of polypeptides to stimulate cGMP production in cGMP assays or for the preparation of cell membranes to measure the binding activity of polypeptides in competitive radioligand binding assays, as described below.
Test polypeptides were added starting at 10 μM concentration and at 10-fold decreasing concentrations to obtain 8-point concentration-response curves (i.e., 10 μM to 1 pM). The quantity of cGMP generated was detected using HTRF® technology and normalized to maximum amount produced by 100 nM amidated rat ANP and the minimum amount produced by assay buffer. Detailed steps are outlined below.
Stock solutions of test polypeptides (2 mM) dissolved in DMSO were first diluted 100-fold in assay buffer containing HBSS with Ca^2+ and Mg^2+, 5 mM HEPES, 0.5 mM IBMX, and 0.1% BSA or 0.1% casein (pH 7.4). The polypeptides were further serially diluted in 1:10 dilution steps in assay buffer containing 0.1% BSA or 0.1% casein to generate 8-point 2× working stock solutions ranging from 20 μM to […].
A 10 μL cell suspension containing 4000 cells was plated in Costar® half-area white opaque 96-well plates (Corning, cat no. 3693). Then 10 μL of assay buffer (basal activity), 200 nM of amidated rat ANP (maximum activity) or 2× working stock solutions of test polypeptides were transferred into the plate. Final concentration of DMSO in each well was 0.5%. The plate was shaken for 15 sec and then incubated for 40 min at room temperature.
The cGMP generated was measured using cGMP kit following the manufacturer's directions, as described below.

[1] = assay buffer with 0.1% casein, read-out: cGMP Assay (EC50, pM) w/Casein rNPRA

Compound	EC50 (assay buffer with 0.1% BSA, read-out: cGMP Assay (EC50, pM) w/BSA rNPRA) [pM]	EC50 [1] [pM]	EC50 (cGMP Assay (EC50, pM) w/Casein rNPRA, assay buffer with 0.1% casein) [pM]
CC[C@H](C)[C@@H]1NC(=O)[C@H](CCCNC(=N)N)NC(=O)[C@H](CC(=O)O)NC(=O)[C@H]([C@@H](C)CC)NC(=O)[C@H](CCCNC(=N)N)NC(=O)[C@H](CCCCN)NC(=O)CNC(=O)[C@H](Cc2ccccc2)NC(=O)[C@@H](NC(=O)[C@H](CO)NC(=O)[C@H](CO)NC(=O)[C@H](CCCNC(=N)N)NC(=O)[C@H](CCCNC(=N)N)NC(=O)[C@H](Cc2ccncc2)NC(=O)[C@H](CO)NC(=O)CCOCCOCCOCCOCCOCCOCCOCCOCCOCCOCCOCCOCCOCCOCCOCCOCCOCCOCCOCCOCCOCCOCCOCCOCCNC(=O)CNC(=O)[C@H](CCCCN)NC(=O)[C@H](CCC(=O)O)NC(=O)[C@H](CCCCN)NC(=O)[C@H](CCC(=O)O)NC(=O)[C@H](CCCCN)NC(=O)[C@H](CCC(=O)O)NC(=O)CC[C@H](NC(=O)CCCCCCCCCCCCCCCCCCC(=O)O)C(=O)O)CSCSC[C@@H](C(=O)N2CCC[C@H]2C(=O)N[C@@H](CO)C(=O)N[C@@H](Cc2ccccc2)C(=O)N[C@@H](CCCNC(=N)N)C(=O)N[C@@H](Cc2c[nH]cn2)C(=O)NCC(=O)NCC(=O)N[C@@H](CCCCN)C(=O)N[C@@H](CO)C(=O)N[C@@H](CO)C(=O)NCC(=O)N[C@@H](C)C(=O)N2CCC[C@H]2C(=O)N2CCC[C@H]2C(=O)N2CCC[C@H]2C(=O)N[C@@H](CO)C(N)=O)NC(=O)CNC(=O)[C@H](CC(C)C)NC(=O)CNC(=O)[C@H](CO)NC(=O)[C@H](CCC(N)=O)NC(=O)[C@H](Cc2c[nH]cn2)NC(=O)CNC1=O [Example 109]	276000	16800	–
CC[C@H](C)[C@@H]1NC(=O)[C@H](CCCNC(=N)N)NC(=O)[C@H](CC(=O)O)NC(=O)[C@H]([C@@H](C)CC)NC(=O)[C@H](CCCNC(=N)N)NC(=O)[C@H](CCCCN)NC(=O)CNC(=O)[C@H](Cc2ccccc2)NC(=O)[C@@H](NC(=O)[C@H](CO)NC(=O)[C@H](CO)NC(=O)[C@H](CCCNC(=N)N)NC(=O)[C@@H]2CCCN2C(=O)[C@H](CCCCN)NC(=O)[C@H](CCC(=O)O)NC(=O)COCCOCCNC(=O)COCCOCCNC(=O)COCCOCCNC(=O)COCCOCCNC(=O)COCCOCCNC(=O)COCCOCCNC(=O)CNC(=O)[C@H](CCCCN)NC(=O)[C@H](CCC(=O)O)NC(=O)[C@H](CCCCN)NC(=O)[C@H](CCC(=O)O)NC(=O)[C@H](CCCCN)NC(=O)[C@H](CCC(=O)O)NC(=O)CC[C@H](NC(=O)CCCCCCCCCCCCCCCCCCC(=O)O)C(=O)O)CSCSC[C@@H](C(=O)N2CCC[C@H]2C(=O)N[C@@H](CO)C(=O)N[C@@H](Cc2ccccc2)C(=O)N[C@@H](CCCNC(=N)N)C(=O)N[C@@H](Cc2c[nH]cn2)C(=O)NCC(=O)N[C@@H](CO)C(=O)N2CCC[C@H]2C(=O)N[C@@H](CO)C(=O)N[C@@H](CO)C(=O)NCC(=O)N[C@@H](C)C(=O)N2CCC[C@H]2C(=O)N2CCC[C@H]2C(=O)N2CCC[C@H]2C(=O)N[C@@H](CO)C(N)=O)NC(=O)CNC(=O)[C@H](CC(C)C)NC(=O)CNC(=O)[C@H](CO)NC(=O)[C@H](Cc2ccc(O)cc2)NC(=O)[C@H](Cc2c[nH]cn2)NC(=O)CNC1=O [Example 122, HOOC-(CH2)18-CO-(γGlu)-EKEKEKG-(AEEA)6-EKPRSS[CFGKRIDRIGHYSGLGCJPSFRHGSPSSGAPPPS-NH2]	–	–	3770
CC[C@H](C)[C@@H]1NC(=O)[C@H](CCCNC(=N)N)NC(=O)[C@H](CC(=O)O)NC(=O)[C@H]([C@@H](C)CC)NC(=O)[C@H](CCCNC(=N)N)NC(=O)CNC(=O)CNC(=O)[C@H](Cc2ccccc2)NC(=O)[C@@H](NC(=O)[C@H](CO)NC(=O)[C@H](CO)NC(=O)[C@H](CCCNC(=N)N)NC(=O)[C@H](CCCNC(=N)N)NC(=O)[C@H](Cc2ccncc2)NC(=O)[C@H](CO)NC(=O)CCOCCOCCOCCOCCOCCOCCOCCOCCOCCOCCOCCOCCNC(=O)CNC(=O)[C@H](CCCCN)NC(=O)[C@H](CCC(=O)O)NC(=O)[C@H](CCCCN)NC(=O)[C@H](CCC(=O)O)NC(=O)[C@H](CCCCN)NC(=O)[C@H](CCC(=O)O)NC(=O)CC[C@H](NC(=O)CCCCCCCCCCCCCCCCCCC(=O)O)C(=O)O)CSCSC[C@@H](C(=O)N2CCC[C@H]2C(=O)N[C@@H](CO)C(=O)N[C@@H](Cc2ccccc2)C(=O)N[C@@H](CCCNC(=N)N)C(=O)N[C@@H](Cc2c[nH]cn2)C(=O)NCC(=O)NCC(=O)N[C@@H](CCCCN)C(=O)N[C@@H](CO)C(=O)N[C@@H](CO)C(=O)NCC(=O)N[C@@H](C)C(=O)N2CCC[C@H]2C(=O)N2CCC[C@H]2C(=O)N2CCC[C@H]2C(=O)N[C@@H](CO)C(N)=O)NC(=O)CNC(=O)[C@H](CC(C)C)NC(=O)CNC(=O)[C@H](CO)NC(=O)[C@H](CCC(N)=O)NC(=O)[C@H](Cc2c[nH]cn2)NC(=O)CNC1=O [Example 82]	–	25400	–
